Reference: the SangsterLogP compilation

Experiment: method code SF-GLC, from DOI: 10.1002/qsar.19850040403
Conditions: pH 13.0

| Structure (SMILES) | logD |
| --- | --- |
| CCNCC(F)(F)F | 0.74 |
| C=CCNCC | 0.81 |
| CCCCCN | 1.49 |
| CCCN(CCC)CCC | 2.79 |
| CCCCCCCN | 2.57 |
| C=CCNCCC | 1.33 |
| CCCN(CC)CC(F)(F)F | 2.38 |
| CCN(C)C | 0.7 |
| CCCNCC(C)C | 2.07 |
| CCNC | 0.15 |
| CCN(CC)CC(F)(F)F | 1.88 |
| CC(C)N | 0.26 |
| CC(C)CN | 0.73 |
| C1CCNC1 | 0.46 |
| CCCN(CC)CCC | 2.68 |
| CCCN(C)CC(F)(F)F | 2.18 |
| CNCC(F)(F)F | 0.55 |
| C1CN2CCC1CC2 | 1.38 |
| NCC(F)(F)F | 0.24 |
| CCCNC(C)CC (centres undefined) | 1.91 |
| CCNC(C)C | 0.93 |
| CN(C)CC(F)(F)F | 1.06 |
| CCCCNCCC | 2.12 |
| CCCCC(CC)CN (centres undefined) | 2.82 |
